# Patent US20260272907A1, “Therapeutic Tyrosine Kinase Inhibitors for Multiple Sclerosis” (Principia Biopharma Inc., priority 2022, published 2026)
# How the values were obtained:
# [1] = tested on: patients with relapsing multiple sclerosis; assay: Long-term safety extension: slowly evolving lesions (SEL) volume (MRI); type: in vivo, human; conditions: W96
# Procedure: In the current open-label extension Part B, all patients receive 60 mg/day. MRI outcomes include numbers of new Gd-enhancing and new/enlarging T2 lesions, T2 lesion volume change from baseline, slowly evolving lesions (SEL), and paramagnetic rim lesions (PRL).
# [2] = tested on: patients with relapsing multiple sclerosis; assay: Phase 2b dose-finding study: number of new or enlarging T2 lesions by brain MRI; conditions: for Number of new/enlarging T2 lesions, mean (SD): Cohort 1 (all doses)
# Procedure: New T1 Gd-enhancing hyperintense and new and enlarging T2 lesions are evaluated at each visit as per the SoA (Table 1), comparing lesion count to that from the previous MRI scan. Unless specified otherwise, the baseline brain MRI is used as the reference to assess all MRI-derived endpoints. The baseline MRI is the last MRI performed before the randomization visit. Standardized endpoint evaluation is assured by central review of brain MRI scans. Blinded central review is performed for all MRI-derived endpoints. Magnetic resonance imaging reviewers are blinded to treatment assignments and to other participant data.
# For the number of new or enlarging T2 lesions, descriptive summary statistics over time (4, 8, 12, and 16 weeks) is provided for each of the 4 BTK inhibitor doses. Further, a similar MCP-Mod approach is explored if it is deemed reasonable to extrapolate the Week 4 data from Cohort 2 to the Week 12 placebo data.
# For each secondary endpoint, a similar negative binomial model and the MCP-Mod procedure were used. As it is reasonable to assume a constant rate of lesion formation over 12 weeks under placebo treatment, the same approach as that utilized for the primary endpoint was used, i.e., using the Week 4 data in Cohort 2 as the Week 12 placebo data while accounting for within-participant correlation. Descriptive summary statistics over time were provided for each of the 4 BTK inhibitor dose groups.
# Magnetic resonance imaging (MRI) scans were obtained at screening and every 4 weeks for 16 weeks.
# OUTCOMES: The outcomes evaluated in this example include measuring the incidence of relapse during 4-week placebo run-in and run-out, the number of new Gd-enhancing T1 lesions detected with magnetic resonance imaging (MRI) at Weeks 4, 8 and 16, the number of new or enlarging T2 lesions measured at Weeks 4, 8 and 16, and the plasma CD19+B-cell count measured in the placebo run-out cohort at baseline, 1 hour after the first dose, then at Week 12 and Week 16 (FIG. 3).
# [3] = 5 mg daily, after 12 weeks of treatment
# [4] = 15 mg daily, after 12 weeks of treatment
# [5] = 30 mg daily, after 12 weeks of treatment
# [6] = 60 mg daily, after 12 weeks of treatment
structure (smiles),measurement,setting,value
"C=CC(=O)N1CCC[C@@H](n2c(=O)n(-c3ccc(Oc4ccccc4)cc3)c3c(N)nccc32)C1 [the BTK inhibitor, (R)-1-(1-acryloylpiperidin-3-yl)-4-amino-3-(4-phenoxyphenyl)-1H-imidazo[4,5-c]pyridin-2(3H)-one]","SEL volume, median (IQR)",[1]; 5/60-mg arm,247.5 (84-420) mm3
same,"SEL volume, median (IQR)",[1]; 15/60-mg arm,258 (66-906) mm3
same,"SEL volume, median (IQR)",[1]; 30/60-mg arm,570 (133.5-1011) mm3
same,"SEL volume, median (IQR)",[1]; 60/60-mg arm,244.5 (87-939) mm3
same,"New or enlarging T2 lesion count, Mean",[2]; [3],1.90
same,"New or enlarging T2 lesion count, Median",[2]; [3],0.00
same,"Count of new and enlarging T2 lesions, observed mean (SD)","[2]; 5 mg once daily, end of 12 weeks of treatment",1.90 (3.97)
same,"New or enlarging T2 lesion count, Mean",[2]; [4],1.32
same,"New or enlarging T2 lesion count, Median",[2]; [4],1.00
same,"Count of new and enlarging T2 lesions, observed mean (SD)","[2]; 15 mg once daily, end of 12 weeks of treatment",1.32 (1.83)
same,"New or enlarging T2 lesion count, Mean",[2]; [5],1.30
same,"New or enlarging T2 lesion count, Median",[2]; [5],0.00
same,"Count of new and enlarging T2 lesions, observed mean (SD)","[2]; 30 mg once daily, end of 12 weeks of treatment",1.30 (4.90)
same,"New or enlarging T2 lesion count, Mean",[2]; [6],0.23
same,"New or enlarging T2 lesion count, Median",[2]; [6],0.00
same,Patients with >=3 new or enlarging T2 lesions,[2]; [6],0 n
same,"Count of new and enlarging T2 lesions, observed mean (SD)","[2]; 60 mg once daily, end of 12 weeks of treatment",0.23 (0.62)
same,Adjusted relative reduction in count of new and enlarging T2 lesions relative to placebo,"[2]; 60 mg, 12 weeks, 95% CI [68.39%, 96.41%], nominal p=0.0001",89.34%
same,Participants with no new and enlarging T2 lesions,"[2]; 60 mg, end of 12 weeks of treatment, 27 of 31 with evaluable MRI",87.1%
same,"Number of new/enlarging T2 lesions, mean (SD)",[2]; Week 12,0.58 (1.27)
same,"Number of new/enlarging T2 lesions, mean (SD)",[2]; after 4 weeks of placebo run-out,0.95 (2.72)
